Measured values taken from ChEMBL document CHEMBL1201862, “PubChem BioAssay data set” (2004).
The source made the active and inactive calls.

Key:
cells [1] = assay type: functional, cell-based
cells [2] = assay type: functional, cell-based; remark: listed apart in the source
Leucine aminopeptidase = target: T1, Leucine aminopeptidase (Plasmodium falciparum 3D7, UniProt Q8IL11); experiment: P. falciparum M17LAP inhibitors, primary screen, biochemical, fluorogenic H-Leu-NHMec substrate, 1536-well (AID 1619); assay type: functional
T1 sequence (Q8IL11 whole entry): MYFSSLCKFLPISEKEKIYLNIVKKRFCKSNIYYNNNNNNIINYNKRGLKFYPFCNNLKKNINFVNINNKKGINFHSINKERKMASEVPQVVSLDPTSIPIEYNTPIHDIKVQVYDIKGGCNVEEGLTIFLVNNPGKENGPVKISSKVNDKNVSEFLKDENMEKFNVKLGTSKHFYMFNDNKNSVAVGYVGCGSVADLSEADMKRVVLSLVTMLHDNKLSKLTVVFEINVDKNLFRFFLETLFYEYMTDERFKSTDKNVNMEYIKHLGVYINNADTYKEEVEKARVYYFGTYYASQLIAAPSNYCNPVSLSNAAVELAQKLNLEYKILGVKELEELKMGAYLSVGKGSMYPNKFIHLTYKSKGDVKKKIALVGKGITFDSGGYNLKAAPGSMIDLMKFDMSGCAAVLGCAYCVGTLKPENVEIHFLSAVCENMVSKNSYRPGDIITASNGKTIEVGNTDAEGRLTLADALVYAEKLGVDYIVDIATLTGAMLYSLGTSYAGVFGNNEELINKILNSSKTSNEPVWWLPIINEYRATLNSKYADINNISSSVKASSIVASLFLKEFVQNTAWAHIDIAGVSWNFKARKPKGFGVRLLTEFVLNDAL

Cytochrome P450 1A2 = target: T2, Cytochrome P450 1A2 (Homo sapiens, UniProt P05177);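 note: PubChem cytochrome P450 panel assay, CYP1A2 panel member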
T2 sequence (P05177 whole entry): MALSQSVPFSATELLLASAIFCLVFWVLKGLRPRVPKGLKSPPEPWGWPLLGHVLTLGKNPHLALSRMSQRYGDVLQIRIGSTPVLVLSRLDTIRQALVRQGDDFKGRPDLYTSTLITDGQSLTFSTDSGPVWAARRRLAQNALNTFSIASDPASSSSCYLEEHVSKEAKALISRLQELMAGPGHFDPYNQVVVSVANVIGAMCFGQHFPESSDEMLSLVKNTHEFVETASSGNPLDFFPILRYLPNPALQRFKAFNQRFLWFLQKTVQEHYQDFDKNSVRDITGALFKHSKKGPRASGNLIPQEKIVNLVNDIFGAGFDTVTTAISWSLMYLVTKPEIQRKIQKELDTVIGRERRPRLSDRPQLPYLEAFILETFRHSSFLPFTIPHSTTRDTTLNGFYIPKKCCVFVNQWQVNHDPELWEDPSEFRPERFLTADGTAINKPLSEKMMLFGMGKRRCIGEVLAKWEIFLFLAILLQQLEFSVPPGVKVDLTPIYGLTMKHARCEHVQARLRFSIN

Cytochrome P450 2C9 = Cytochrome P450 2C9 (Homo sapiens, UniProt P11712)
Cytochrome P450 2C19 = Cytochrome P450 2C19 (Homo sapiens, UniProt P33261); experiment: Cytochrome panel assay with activity outcomes. Panel member name: p450-cyp2c19 Compounds with AC50 equal or less than 10 uM are considered active; assay type: functional; settings: read-out: AC50
[3] = HEp-2 cell cytotoxicity, dose response, cytotoxicity control for RSV inhibitor project, HTS (AID 2410); assay type: functional; settings: human respiratory syncytial virus
Fatty acid synthase = Fatty acid synthase (Homo sapiens, UniProt P49327); experiment: FAS thioesterase domain inhibitors, dose response, biochemical, kinetic fluorescence intensity (AID 624326); assay type: functional;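 note: rate of fluorescence rise from hydrolysis of a fluorogenic O-methyl fluorescein ester substrate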
[4] = Luminescence Cell-Based Dose Confirmation HTS to Identify Inhibitors of Platelet Dense Granule Release. [Related pubchem assays: 1663 (Primary HTS), 1678 (Summary of Project)]; assay type: functional
Streptokinase A = target: T3, Streptokinase A (Streptococcus pyogenes serotype M1, UniProt P10520); experiment: S. pyogenes streptokinase expression inhibitors, potency, dose response, plasminogen activation absorbance, OD405 (AID 1914); assay type: functional, Streptococcus pyogenes M1 GAS;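 note: secreted streptokinase activity via plasminogen activation per viability signal from cell pellet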
T3 sequence (P10520 whole entry): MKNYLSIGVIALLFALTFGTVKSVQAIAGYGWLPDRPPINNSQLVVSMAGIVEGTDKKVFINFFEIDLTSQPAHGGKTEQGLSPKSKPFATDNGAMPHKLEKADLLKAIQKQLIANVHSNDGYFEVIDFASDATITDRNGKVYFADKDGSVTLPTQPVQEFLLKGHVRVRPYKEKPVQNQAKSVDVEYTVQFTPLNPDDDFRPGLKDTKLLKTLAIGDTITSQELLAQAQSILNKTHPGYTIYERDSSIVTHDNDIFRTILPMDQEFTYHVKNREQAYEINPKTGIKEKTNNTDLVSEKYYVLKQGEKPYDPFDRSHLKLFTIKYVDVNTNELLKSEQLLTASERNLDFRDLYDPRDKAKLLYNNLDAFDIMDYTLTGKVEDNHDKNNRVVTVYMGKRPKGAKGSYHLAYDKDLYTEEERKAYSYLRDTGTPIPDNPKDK

Streptococcus = experiment: Group A Streptococcus viability loss, dose response, counter-screen for streptokinase expression inhibitor project, luminescence, BacTiterGlo (AID 1915); assay type: functional, organism-based;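 note: potency for reduction of bacterial viability or growth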
[5] = system: Streptococcus sp. 'group A'; experiment: growth inhibition of control SK(-) GAS strain, dose response, counter-screen for streptokinase expression inhibitor project, luminescence, kanamycin, BacTiterGlo, confirmation (AID 1900); assay type: functional, organism-based
[6] = target: Luciferin 4-monooxygenase (Photinus pyralis, UniProt P08659); experiment: firefly luciferase enzyme inhibitors, dose response, biochemical, luminescence (AID 1891)
[7] = Luminescence Cell-Based Dose Response HTS to Identify Activators of Luciferase Translation or Activity in H4 […] Cells. [Related pubchem assays: 1829 (Project Summary), 1814 (Primary HTS)]; assay type: functional
[8] = Luminescence Cell-Based Dose Confirmation HTS to Identify Activators of 5'UTR Stem-Loop Driven Alpha-Synuclein mRNA Translation in H4 Neuroglioblastoma Cells. [Related pubchem assays: 1829 (Project Summary), 1814 (Primary HTS)]; assay type: functional
H4 = experiment: Luminescence Cell-Based Dose Response HTS to Identify Activators of 5'UTR Stem-Loop Driven Prion Protein mRNA Translation in H4 Neuroglioblastoma Cells. [Related pubchem assays: 1829 (Project Summary), 1814 (Primary HTS)]; assay type: functional; settings: Homo sapiens

Luciferin 4-monooxygenase, sequence (P08659 whole entry): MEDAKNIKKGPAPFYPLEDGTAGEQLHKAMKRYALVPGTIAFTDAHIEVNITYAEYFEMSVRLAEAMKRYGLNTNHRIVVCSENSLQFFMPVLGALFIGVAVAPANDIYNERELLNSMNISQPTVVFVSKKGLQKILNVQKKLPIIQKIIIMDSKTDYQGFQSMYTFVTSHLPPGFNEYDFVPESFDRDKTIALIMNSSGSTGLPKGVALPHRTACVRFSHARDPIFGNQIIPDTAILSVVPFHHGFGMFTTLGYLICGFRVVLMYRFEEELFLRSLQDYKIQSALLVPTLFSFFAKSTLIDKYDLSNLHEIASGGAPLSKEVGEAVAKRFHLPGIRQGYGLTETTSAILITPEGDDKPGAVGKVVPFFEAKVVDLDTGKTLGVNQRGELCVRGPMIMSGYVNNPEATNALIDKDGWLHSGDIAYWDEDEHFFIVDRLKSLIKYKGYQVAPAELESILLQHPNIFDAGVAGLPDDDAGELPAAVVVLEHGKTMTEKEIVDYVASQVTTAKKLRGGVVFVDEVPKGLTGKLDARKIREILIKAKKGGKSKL
Cytochrome P450 2C19, sequence (P33261 whole entry): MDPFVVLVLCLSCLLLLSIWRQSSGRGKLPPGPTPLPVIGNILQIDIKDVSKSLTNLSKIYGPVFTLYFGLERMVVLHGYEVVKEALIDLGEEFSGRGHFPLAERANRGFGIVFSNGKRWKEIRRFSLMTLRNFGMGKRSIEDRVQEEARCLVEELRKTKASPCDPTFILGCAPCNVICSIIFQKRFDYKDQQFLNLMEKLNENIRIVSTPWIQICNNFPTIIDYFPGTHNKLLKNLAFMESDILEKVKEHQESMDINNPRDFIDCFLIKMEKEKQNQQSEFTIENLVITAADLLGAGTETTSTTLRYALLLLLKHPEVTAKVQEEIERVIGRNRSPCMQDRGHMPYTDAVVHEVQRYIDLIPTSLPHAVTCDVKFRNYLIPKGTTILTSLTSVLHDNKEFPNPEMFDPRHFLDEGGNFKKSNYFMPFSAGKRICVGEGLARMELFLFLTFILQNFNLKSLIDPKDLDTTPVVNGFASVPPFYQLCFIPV
Cytochrome P450 2C9, sequence (P11712 whole entry): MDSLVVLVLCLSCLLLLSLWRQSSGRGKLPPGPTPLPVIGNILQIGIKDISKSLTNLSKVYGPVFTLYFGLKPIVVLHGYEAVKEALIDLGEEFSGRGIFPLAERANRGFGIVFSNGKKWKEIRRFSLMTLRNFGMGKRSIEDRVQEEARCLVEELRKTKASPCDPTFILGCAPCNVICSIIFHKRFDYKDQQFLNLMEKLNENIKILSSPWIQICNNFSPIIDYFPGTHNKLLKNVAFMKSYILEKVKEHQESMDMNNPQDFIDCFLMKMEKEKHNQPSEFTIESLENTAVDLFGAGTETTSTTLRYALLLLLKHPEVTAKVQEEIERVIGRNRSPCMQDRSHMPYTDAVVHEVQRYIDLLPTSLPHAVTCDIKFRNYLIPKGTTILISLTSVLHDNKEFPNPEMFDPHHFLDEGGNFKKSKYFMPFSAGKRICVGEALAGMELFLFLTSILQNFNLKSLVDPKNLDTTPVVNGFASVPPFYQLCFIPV
Fatty acid synthase, sequence (P49327 whole entry, the tested form may be a part): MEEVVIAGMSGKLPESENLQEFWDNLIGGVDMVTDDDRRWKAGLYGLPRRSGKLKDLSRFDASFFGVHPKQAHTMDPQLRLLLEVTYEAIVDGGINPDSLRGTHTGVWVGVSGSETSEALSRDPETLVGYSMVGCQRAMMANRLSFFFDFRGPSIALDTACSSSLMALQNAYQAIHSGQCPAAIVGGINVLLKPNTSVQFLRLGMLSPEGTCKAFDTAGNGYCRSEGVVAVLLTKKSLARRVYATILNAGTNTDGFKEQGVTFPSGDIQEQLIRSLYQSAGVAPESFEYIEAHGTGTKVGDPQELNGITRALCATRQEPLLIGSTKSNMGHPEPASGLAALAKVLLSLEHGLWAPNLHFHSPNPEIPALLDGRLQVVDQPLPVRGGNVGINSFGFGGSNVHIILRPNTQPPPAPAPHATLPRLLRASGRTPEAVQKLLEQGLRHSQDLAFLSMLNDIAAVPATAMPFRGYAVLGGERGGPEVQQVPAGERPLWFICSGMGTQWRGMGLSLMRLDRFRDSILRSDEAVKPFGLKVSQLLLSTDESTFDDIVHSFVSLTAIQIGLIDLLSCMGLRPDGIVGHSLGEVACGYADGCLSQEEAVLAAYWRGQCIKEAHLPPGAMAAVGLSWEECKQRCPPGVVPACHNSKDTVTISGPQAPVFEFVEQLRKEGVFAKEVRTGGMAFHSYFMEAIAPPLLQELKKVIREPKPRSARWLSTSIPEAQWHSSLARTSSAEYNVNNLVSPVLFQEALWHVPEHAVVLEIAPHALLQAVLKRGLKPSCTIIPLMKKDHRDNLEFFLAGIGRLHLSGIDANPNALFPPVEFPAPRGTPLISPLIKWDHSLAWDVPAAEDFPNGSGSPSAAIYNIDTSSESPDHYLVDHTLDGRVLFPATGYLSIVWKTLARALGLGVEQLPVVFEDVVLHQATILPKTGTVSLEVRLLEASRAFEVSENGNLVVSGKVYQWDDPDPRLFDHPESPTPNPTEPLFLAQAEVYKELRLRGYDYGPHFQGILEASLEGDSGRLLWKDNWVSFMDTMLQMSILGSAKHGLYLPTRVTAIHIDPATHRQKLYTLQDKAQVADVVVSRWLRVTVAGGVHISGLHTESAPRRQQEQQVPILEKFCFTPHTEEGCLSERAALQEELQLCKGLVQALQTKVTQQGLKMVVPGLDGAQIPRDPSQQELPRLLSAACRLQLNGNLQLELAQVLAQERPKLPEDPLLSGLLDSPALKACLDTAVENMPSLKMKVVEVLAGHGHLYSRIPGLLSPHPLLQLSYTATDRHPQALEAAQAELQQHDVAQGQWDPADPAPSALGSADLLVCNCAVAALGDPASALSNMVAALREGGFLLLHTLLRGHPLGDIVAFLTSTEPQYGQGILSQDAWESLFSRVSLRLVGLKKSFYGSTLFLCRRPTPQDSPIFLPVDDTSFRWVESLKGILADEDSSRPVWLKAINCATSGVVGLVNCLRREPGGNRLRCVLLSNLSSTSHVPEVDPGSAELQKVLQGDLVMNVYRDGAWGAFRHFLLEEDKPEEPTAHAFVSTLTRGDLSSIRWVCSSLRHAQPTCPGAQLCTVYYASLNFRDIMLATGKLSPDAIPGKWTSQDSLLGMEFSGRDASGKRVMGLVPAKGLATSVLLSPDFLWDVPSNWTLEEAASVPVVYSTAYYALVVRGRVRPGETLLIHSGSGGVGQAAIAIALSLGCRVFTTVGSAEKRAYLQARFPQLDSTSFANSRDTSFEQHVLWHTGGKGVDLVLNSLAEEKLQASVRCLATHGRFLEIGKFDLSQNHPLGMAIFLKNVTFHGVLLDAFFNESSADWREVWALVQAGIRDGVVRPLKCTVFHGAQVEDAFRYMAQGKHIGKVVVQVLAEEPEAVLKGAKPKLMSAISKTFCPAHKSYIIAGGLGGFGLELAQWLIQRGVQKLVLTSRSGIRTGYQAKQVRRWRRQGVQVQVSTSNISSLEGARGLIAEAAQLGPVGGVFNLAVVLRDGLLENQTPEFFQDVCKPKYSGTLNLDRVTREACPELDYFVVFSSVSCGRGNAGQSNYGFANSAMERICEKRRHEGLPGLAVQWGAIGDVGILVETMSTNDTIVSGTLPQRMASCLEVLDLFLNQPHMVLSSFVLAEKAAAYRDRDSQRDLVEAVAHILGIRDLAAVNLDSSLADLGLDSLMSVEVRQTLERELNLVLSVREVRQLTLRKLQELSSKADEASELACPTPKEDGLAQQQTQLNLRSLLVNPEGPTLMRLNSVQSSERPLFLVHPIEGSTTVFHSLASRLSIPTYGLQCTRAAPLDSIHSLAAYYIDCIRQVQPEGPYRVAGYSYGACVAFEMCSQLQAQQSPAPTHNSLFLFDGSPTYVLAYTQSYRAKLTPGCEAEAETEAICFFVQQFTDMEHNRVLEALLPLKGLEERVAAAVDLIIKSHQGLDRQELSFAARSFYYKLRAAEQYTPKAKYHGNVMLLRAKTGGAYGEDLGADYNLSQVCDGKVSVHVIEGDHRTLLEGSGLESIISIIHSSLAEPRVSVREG

## S=C(Nc1ccc2c[nH]nc2c1)Nc1ccccc1Cl
Cells [1]
  EC50: > 350 µM (not active)
Cells [2]
  EC50: > 350 µM (not active)

## COc1ccc(C2CC(=O)c3sc(N)nc3C2)cc1 (stereo unspecified)
Leucine aminopeptidase
  IC50: 30.1 µM (active)

## CC(OC(=O)Cn1c(C(F)(F)F)nc2ccccc21)C(N)=O (stereo unspecified)
Cytochrome P450 1A2
  AC50: 25.1 µM (inconclusive)
Cytochrome P450 2C9
  AC50: 0.631 µM (inconclusive)
Cytochrome P450 2C19
  AC50: 28.2 µM (inconclusive)

## CN(CC(=O)Nc1ccc(Cl)c(C(F)(F)F)c1)C(=O)CCCNC(=O)c1ccc(Cl)cc1
[3]
  CC50: 2.49 µM (active)

## O=C(O)c1ccccc1Nc1ccc([N+](=O)[O-])cc1C(=O)O
Cells [1]
  EC50: > 350 µM (not active)
Cells [2]
  EC50: > 350 µM (not active)

## CC(C)(C)c1nc2scc(-c3cccs3)c2c(=O)o1
Fatty acid synthase
  IC50: 3.42 µM (active)

## CCOc1ccc(-c2nc3n(c(=O)c2C#N)CCCS3)cc1
[4]
  EC50: > 112 µM (not active)
Streptokinase A
  EC50: > 150 µM (not active)
Streptococcus
  EC50: 148 µM (active)
[5]
  EC50: 11.9 µM (active)
[6]
  EC50: > 112 µM (not active)

## S=C(c1ccc(-c2cc(Cl)ccc2Cl)o1)N1CCCCC1
[3]
  CC50: > 50 µM (active)

## COC(=O)c1ccc(C2C(C(=O)c3ccc4c(c3)CC(C)O4)=C(O)C(=O)N2Cc2ccncc2)cc1 (stereo unspecified)
[4]
  EC50: > 112 µM (not active)
[6]
  EC50: > 112 µM (not active)

## Cc1ccc(NC(=O)c2nnn(-c3ccc4c(c3)OCCO4)c2N)cc1
[3]
  CC50: > 50 µM (active)

## CCCNC(=O)c1cc2nc(-c3ccccc3)cc(C(F)(F)F)n2n1
Cells [1]
  EC50: > 350 µM (not active)
Cells [2]
  EC50: > 350 µM (not active)

## Cc1ccc(NC(=O)CNc2cc(S(=O)(=O)N3CCOCC3)ccc2NCC2CCCO2)cc1F (stereo unspecified)
[4]
  EC50: > 112 µM (not active)
[6]
  EC50: > 112 µM (not active)

## CC(C)CN(CCNC(=O)c1cn(C)c2ccc(S(=O)(=O)N3CCCC3)cc2c1=O)CC(C)C
Cells [1]
  EC50: > 350 µM (not active)
Cells [2]
  EC50: > 350 µM (not active)

## CCC(c1nnnn1Cc1ccccc1)N(Cc1ccco1)Cc1cc2cc(OC)ccc2nc1O (stereo unspecified)
[4]
  EC50: > 112 µM (not active)
[6]
  EC50: > 112 µM (not active)

## COc1ccc(CCn2ccc(O)c(Cc3ccc(Cl)cc3)c2=O)cc1OC
[3]
  CC50: 20 µM (active)

## COc1ccc(-c2csc(NC(=O)c3cc(C)oc3C)n2)cc1OC
[3]
  CC50: 26.6 µM (active)

## NC(=O)c1nsc(C(=O)N(CC(=O)NC2CCCC2)c2cnc3ccccc3c2)c1N
[4]
  EC50: 17.1 µM (active)
[6]
  EC50: > 112 µM (not active)

## Cc1ccc(NC(=O)NC2=NN(c3ccccc3)C(=O)/C2=C2/CCCN2C)cc1
[7]
  EC50: 18.1 µM (active)
[8]
  EC50: 32.5 µM (active)
H4
  EC50: 14.4 µM (active)

## Cc1ccccc1-c1cc(C(=O)n2cccn2)c2cc(Cl)ccc2n1
Cytochrome P450 1A2
  AC50: 17.8 µM (inconclusive)
Cytochrome P450 2C19
  AC50: 7.08 µM (inconclusive)
